In US5204311A, “Ethanediimidic acid bis[(arylalkylidene)hydrazide] color-formers” (Minnesota Mining and Manufacturing Company, priority 1991, dated 1993):

Legend:
[1] = Color (Hunter coordinates) of Ni complex, swabbed on Ni-coated receptor (CF) sheet; assay type: physicochemical; parameters: key to Hunter coordinate a / Hunter Coordinates a: Hunter a: +a red, -a green; key to Hunter coordinate b / Hunter Coordinates b: Hunter b: +b yellow, -b blue
Procedure: In general, the colors of the complexes, as listed in Table 2 and Experiments 4, 6, and 7 below, were determined by preparing a 1% solution of the color-former or mixture of color-formers in an appropriate solvent. Unless otherwise indicated, the solvent was composed of a mixture of tributyl phosphate (26.5%), diethyl phthalate (17.6%), and cyclohexane (55.9%). The images were formed by applying two stripes of the solution to a substrate coated with a Ni^2+ coated receptor sheet using a cotton tipped applicator swab. Rapid and complete development of the image was achieved by passing the sheet through a hot shoe adjusted to 102° C., making a revolution every 10 seconds. The visually observed colors were measured and recorded.
One method of color measurement is to determine the color's position in color space. One color space system is the Hunter System; see F. W. Billmeyer, Jr., and M. Saltzman, Principles of Color Technology; John Wiley & Sons; New York, N.Y.; Ch. 2 & 3, 1981. In this system three mutually perpendicular axes (L, a, and b) are needed to define a color. "L" (+z axis) represents the lightness or darkness of the image; "a" (x axis) represents the amount of red or green (+a is red, -a is green); and "b" (y axis) represents the amount of yellow or blue (+b is yellow, -b is blue). By measuring a material's L, a, and b values, the color of one sample can be compared with that of other samples. Another value used in the Hunter System is Chroma (C). Chroma is defined by the equation [C=(a^2 +b^2)^1/2 ] and represents the distance of the image coordinates from the origin. The greater the Chroma, the more intense the image. Chroma is used to compare images cf the same hue. Because the color of a sample is also dependent upon the color temperature of the illuminating source, the angle at which the sample is illuminated, the angle at which the illumination is reflected, and the angle of the retina illuminated, these all need to be specified. Many instruments have been developed to record these values. One such instrument is the HunterLab LabScan II. This instrument is capable of automatically determining the L, a, and b values for a given sample, and was used for the following examples.
The L, a, and b color coordinates of the more uniform stripe were measured for 45°/0° reflectance on a HunterLab LabScan II, secondary observer, using illuminant C. The observed (image) color and the Hunter coordinates for Ni^2+ complexes of the yellow color-formers of this invention are given in Table 2.
A 1% solution of the condensation product in the encapsulation fill mix was swabbed onto a carbonless paper CF sheet (sold by the 3M Co. St. Paul, Minn.) with a cotton swab. The reflectance spectra had Hunter coordinates of: […]

[2] = Color of coated CB sheet before imaging; assay type: physicochemical; conditions: encapsulated, before imaging (Experiments 6, 7)
Procedure: The capsule slurry (10 g) was added to 65 g of a 1.5% aqueous sodium alginate solution. The mixture was applied to a coated paper using a bar coater with a 3 mil gap. The coating was allowed to dry at room temperature.
A 2% solution of the compound 1 in the capsule fill solvent of diethyl phthalate, tributyl phosphate, and cyclohexane was encapsulated by the procedure described in Experiment 5 above. A coating mixture of 10.0 g of capsule slurry, 2.5 g of Dow-620 butadiene-styrene latex, and 62.5 g of 1.5% sodium alginate slurry was coated onto paper by the draw down procedure described above.
A 7.5% solution comprising 5.45% N-(5-octanoylamido-2-metylpentyl)dithiooxamide/N-(5-octanoylamido-4-methylpentyl)dithiooxamide (G') mixture and 2.05% N,N'-di(5-octanoylamido-2-methylpentyl)dithiooxamide/N-(5-octanoylamido-2- methylpentyl)-N'-(5-octanoylamido-4-methylpentyl)dithiooxamide/N,N'-(5-octanoylamido-2-methylpentyl)dithiooxamide (G) mixture in the fill solvent mixture of diethyl phthalate, tributyl phosphate, and cyclohexanone was encapsulated by the procedure described above. A coating mixture of 10.0 g of capsule slurry, 2.5 g of Dow 620 styrene-butadiene latex, and 62.5 g of 1.5% sodium alginate solution was coated onto paper by the draw down procedure described in Experiment 5 above. […]

[3] = 1% solution in encapsulation fill mix swabbed onto 3M CF sheet (Experiments 2, 3)
[4] = Ni(II) complex, swab concn. 1%, 45°/0° reflectance, illuminant C (Table 2)

SMILES: CC(C)(C)c1cc(C=NN=C(N)C(N)=NN=Cc2cc(C(C)(C)C)cc(C(C)(C)C)c2O)c(O)c(C(C)(C)C)c1 [Compound 1, ethanediimidic acid bis[(3,5-di-t-butylsalicylidene)hydrazide]]
- Hunter coordinate L [1, 3]: 79.8
- Hunter coordinate a [1, 3]: -2.1
- Hunter coordinate b [1, 3]: 39.3
- color observed on the CF sheet ([1]; 1% solution swabbed (Experiments 2, 3)): yellow
- Chroma ([1]; C=(a^2 +b^2)^1/2, Ni(II) complex, swab concn. 1% (Table 2)): 39.3
- Image Color ([1]; Ni(II) complex, swab concn. 1% (Table 2)): Yellow
- Hunter Coordinates L [1, 4]: 79.8
- Hunter Coordinates a [1, 4]: -2.1
- Hunter Coordinates b [1, 4]: 39.3
- color of coated (CB) sheet [2]: neutral in color
